The values below come from ChEMBL document CHEMBL3286306, “Himbacine-derived thrombin receptor antagonists: c7-spirocyclic analogues of vorapaxar” (ACS Med Chem Lett, 2014).

Data set [1] concerns the target T1, Proteinase-activated receptor 1 (Homo sapiens, UniProt P25116).
T1 sequence (P25116 whole entry): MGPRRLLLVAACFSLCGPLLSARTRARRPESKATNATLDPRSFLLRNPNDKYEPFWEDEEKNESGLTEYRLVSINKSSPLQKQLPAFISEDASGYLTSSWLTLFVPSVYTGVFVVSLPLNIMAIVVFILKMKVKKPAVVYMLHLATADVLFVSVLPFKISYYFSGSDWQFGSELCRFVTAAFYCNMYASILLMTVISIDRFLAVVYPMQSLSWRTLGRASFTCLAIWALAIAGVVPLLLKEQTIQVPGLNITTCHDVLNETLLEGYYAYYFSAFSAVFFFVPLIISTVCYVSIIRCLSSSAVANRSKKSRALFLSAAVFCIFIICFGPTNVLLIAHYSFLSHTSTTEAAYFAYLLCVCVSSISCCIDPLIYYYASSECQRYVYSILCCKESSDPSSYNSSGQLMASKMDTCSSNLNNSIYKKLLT
As to the kind of experiment: Displacement of [3H]haTRAP from PAR-1 receptor in human platelet membranes after 1 hr by scintillation counting analysis. In kind it is cell membranes.

A short description of data set [2]: AUC (0 to 6 hrs) in rat at 10 mg/kg, po. In kind it is ADME, organism-based. Details: time < 6 hr, dose 10 mg/kg, route oral. Particulars: plasma.

Broadly, the Ki is the equilibrium dissociation constant of an inhibitor or competing ligand from its target. A lower Ki goes with tighter binding. As a reminder, the AUC(0-t) is the area under the concentration-time curve up to a stated or last time point. The low end stands for less exposure, the high end for more exposure.

Molecules are shown by their SMILES.

In turn, `C[C@H]1OC(=O)[C@@H]2C[C@@H]3C[C@]4(CC[C@H]3[C@H](/C=C/c3ccc(-c5cccc(C(F)(F)F)c5)cn3)[C@H]12)COC(=O)N4` had a Ki in data set [1] of 21 nM. Further, the AUC(0-t) at 6 h in data set [2] came out at 4920 ng·h/mL.

As to `C[C@H]1OC(=O)[C@@H]2C[C@@H]3C[C@]4(CC[C@H]3[C@H](/C=C/c3ccc(-c5cccc(F)c5)cn3)[C@H]12)COC(=O)N4`, the inhibitory constant (Ki) in data set [1] was 15.5 nM. Also, the AUC(0-t) at 6 h in data set [2] turned out to be 3240 ng·h/mL.

The compound `C[C@H]1OC(=O)[C@@H]2C[C@@H]3C[C@]4(CC[C@H]3[C@H](/C=C/c3ccc(-c5ccccc5C#N)cn3)[C@H]12)COC(=O)N4` returned a Ki in data set [1] of 5.1 nM.

Compound `C[C@H]1OC(=O)[C@@H]2C[C@@H]3C[C@]4(CC[C@H]3[C@H](/C=C/c3ccc(-c5cccc(C#N)c5)cn3)[C@H]12)COC(=O)N4` gave a Ki in data set [1] of 267 nM. For `C[C@H]1OC(=O)[C@@H]2C[C@@H]3C[C@@]4(CC[C@H]3[C@H](/C=C/c3ccc(-c5cccc(C(F)(F)F)c5)cn3)[C@H]12)COC(=O)N4`, in data set [1], the inhibitory constant (Ki) was determined as 26.5 nM. `C[C@H]1OC(=O)[C@@H]2C[C@@H]3C[C@@]4(CC[C@H]3[C@H](/C=C/c3ccc(-c5cccc(F)c5)cn3)[C@H]12)COC(=O)N4`: in data set [1], the Ki came to 28 nM. In data set [1], `C[C@H]1OC(=O)[C@@H]2C[C@@H]3C[C@@]4(CC[C@H]3[C@H](/C=C/c3ccc(-c5ccccc5C#N)cn3)[C@H]12)COC(=O)N4` showed a Ki of 8.9 nM. As to `C[C@H]1OC(=O)[C@@H]2C[C@@H]3C[C@@]4(CC[C@H]3[C@H](/C=C/c3ccc(-c5cccc(C#N)c5)cn3)[C@H]12)COC(=O)N4`, in data set [1], the affinity, expressed as Ki, was 43 nM. With `C[C@H]1OC(=O)[C@@H]2C[C@@H]3C[C@@]4(CC[C@H]3[C@H](/C=C/c3ccc(-c5ccccc5F)cn3)[C@H]12)COC(=O)N4`, the affinity in data set [1] corresponds to a Ki of 25 nM.

Take `C[C@H]1OC(=O)[C@@H]2C[C@@H]3C[C@@]4(CC[C@H]3[C@H](/C=C/c3ccc(-c5ccccn5)cn3)[C@H]12)COC(=O)N4`: in data set [1], the affinity, expressed as Ki, was 232 nM. Compound `C[C@H]1OC(=O)[C@@H]2C[C@@H]3C[C@@]4(CC[C@H]3[C@H](/C=C/c3ccc(-c5cccc(C(F)(F)F)c5)cn3)[C@H]12)CNC(=O)O4` came in with a Ki in data set [1] of 31.5 nM. In addition, the AUC(0-t) at 6 h in data set [2] came to 3200 ng·h/mL. For the compound `C[C@H]1OC(=O)[C@@H]2C[C@@H]3C[C@]4(CC[C@H]3[C@H](/C=C/c3ccc(-c5cccc(C(F)(F)F)c5)cn3)[C@H]12)CNC(=O)O4`, affinity in data set [1] was put at a Ki of 392 nM. In other words, the sub-micromolar range.
